PubChem BioAssay (NCI)
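Briefly, cells in 96-well plates were exposed to five compound concentrations for 48 h, and endpoints were estimated by linear interpolation. GI50 = concentration required for 50% inhibition of growth. TGI: concentration producing complete growth inhibition.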

Key:
Assay in all cases: NCI-60 cell line screen, 48 h
[1] = system: RXF 393 renal
[2] = system: HL-60(TB) leukemia
[3] = system: 786-0 renal
[4] = system: M14 melanoma
[5] = system: SNB-19 CNS
[6] = system: MCF7 breast
[7] = system: U251 CNS
[8] = system: CCRF-CEM leukemia
[9] = system: SK-OV-3 ovarian
[10] = system: IGROV1 ovarian

For `C=CC(=O)N1C/C(=C\c2ccc(OC)cc2)C(=O)/C(=C/c2ccc(OC)cc2)C1`, the TGI [1] was 3.23 µM, the TGI [2] was greater than 100 µM and the TGI [3] was 4.17 µM. The TGI [4] was 4.78 µM, the TGI [5] was 28.3 µM and the TGI [6] was 5.01 µM. For the same molecule, the TGI [7] was 6.43 µM, the TGI [8] was greater than 25.7 µM and the TGI [9] was 8.39 µM. It also gave a TGI [10] greater than 21.4 µM.
In the case of `CCOP(=O)(OCC)/C(=C/n1c(=S)[nH]c2ccccc21)C(=O)OC`, the TGI [1] is reported as greater than 100 µM, the TGI [2] is reported as greater than 100 µM and the TGI [3] is reported as greater than 100 µM. The TGI [4] was greater than 100 µM, the GI50 [5] was greater than 100 µM and the TGI [5] was greater than 100 µM. It also gave a TGI [6] greater than 100 µM, a TGI [7] greater than 100 µM and a TGI [8] greater than 100 µM. For the same molecule, the TGI [9] was greater than 100 µM and the TGI [10] was greater than 100 µM.
Work on `Cc1ccc(C)n1-c1ccccc1C1C=Cn2c(=O)oc3c(OC(C)C)c(OC(C)C)c(O)c1c32` (stereo not given) yielded a TGI [1] of 32.7 µM, a TGI [2] greater than 100 µM and a TGI [3] greater than 100 µM. It also gave a TGI [4] greater than 100 µM, a TGI [5] greater than 100 µM and a TGI [6] greater than 100 µM. The TGI [7] was greater than 100 µM, the TGI [8] was greater than 100 µM and the TGI [9] was greater than 100 µM. For the same molecule, the TGI [10] was greater than 100 µM.
`N#Cc1c(/C=C/c2ccccc2)c2c([nH]c1=S)CCCCC2` was tested, and the TGI [1] was greater than 100 µM, the TGI [2] was greater than 100 µM and the TGI [3] was greater than 100 µM. For the same molecule, the TGI [4] was greater than 100 µM, the TGI [5] was greater than 100 µM and the TGI [6] was greater than 100 µM. It also gave a TGI [7] greater than 100 µM, a TGI [8] greater than 100 µM and a TGI [9] greater than 100 µM. For the same molecule, the TGI [10] was greater than 100 µM.
In the case of `CCn1c(CCCc2nc3c([nH]2)c(=O)n(C)c(=O)n3C)nc2c1c(=O)n(C)c(=O)n2C`, the TGI [1] is reported as greater than 100 µM, the TGI [2] is reported as greater than 100 µM and the TGI [3] is reported as greater than 100 µM. It also gave a TGI [4] greater than 100 µM, a TGI [5] greater than 100 µM and a TGI [6] greater than 100 µM. The TGI [7] was greater than 100 µM, the TGI [8] was greater than 100 µM and the TGI [9] was greater than 100 µM. It also gave a TGI [10] greater than 100 µM.
Work on `OC(CCN1CCN(CCOC(c2ccccc2)c2ccccc2)CC1)c1ccccc1` (stereo not given) yielded a TGI [1] of 48.6 µM, a TGI [2] of 44.3 µM and a TGI [3] of 33.8 µM. The TGI [4] was 34.1 µM, the TGI [5] was 88.6 µM and the TGI [6] was 47.4 µM. For the same molecule, the TGI [7] was 36 µM, the TGI [8] was greater than 100 µM and the TGI [9] was greater than 100 µM. The TGI [10] was 59.3 µM.
In the case of `COc1ccc(NC(=O)CSC(=O)c2ccccc2)c(SCCSSCCSc2cc(OC)ccc2NC(=O)CSC(=O)c2ccccc2)c1`, the TGI [1] is reported as greater than 100 µM, the TGI [2] is reported as greater than 100 µM and the TGI [3] is reported as greater than 100 µM. For the same molecule, the TGI [4] was greater than 100 µM, the TGI [5] was greater than 100 µM and the TGI [6] was greater than 100 µM. For the same molecule, the TGI [7] was greater than 100 µM, the TGI [8] was greater than 100 µM and the TGI [9] was greater than 100 µM. The TGI [10] was greater than 100 µM.
`O=C(O)C(Cc1ccccc1)Cc1ccccc1` gave a TGI [1] greater than 100 µM, a TGI [2] greater than 100 µM and a TGI [3] greater than 100 µM. It also gave a TGI [4] greater than 100 µM, a TGI [5] greater than 100 µM and a TGI [6] greater than 100 µM. The TGI [7] was greater than 100 µM, the TGI [8] was greater than 100 µM and the TGI [9] was greater than 100 µM. The TGI [10] was greater than 100 µM.
`O=C(CCCCCNC(=O)c1ccc(Cl)cc1)NO` showed a TGI [1] of 19.8 µM, a TGI [2] of 16.1 µM and a TGI [3] of 39 µM. For the same molecule, the TGI [4] was greater than 100 µM, the TGI [5] was greater than 100 µM and the TGI [6] was greater than 100 µM. The TGI [7] was 24 µM, the TGI [8] was greater than 100 µM and the TGI [9] was 41 µM. It also gave a TGI [10] of 25 µM.
With `C=C(C)C1(Sc2ccc(OC)cc2)CC1` the TGI [1] was 36.3 µM, the TGI [2] was 41.6 µM and the TGI [3] was greater than 100 µM. The TGI [4] was greater than 100 µM, the TGI [5] was greater than 100 µM and the TGI [6] was greater than 100 µM. It also gave a TGI [7] greater than 100 µM, a TGI [8] greater than 100 µM and a TGI [9] greater than 100 µM. The TGI [10] was 98.4 µM.
Work on `COc1cc2c3c(n(C)c(=O)c2cc1OC)-c1cc2c(cc1/C3=C\CCCCl)OCO2` yielded a TGI [1] of 26.8 µM, a TGI [2] greater than 100 µM and a TGI [3] of 40 µM. The TGI [4] was greater than 100 µM, the TGI [5] was greater than 100 µM and the TGI [6] was greater than 100 µM. It also gave a TGI [7] greater than 100 µM, a TGI [8] greater than 100 µM and a TGI [9] of 49.3 µM. It also gave a TGI [10] greater than 100 µM.
`NC1(c2cc3ccccc3s2)CCCCCC1` showed a TGI [1] of 25.4 µM, a TGI [2] of 31.5 µM and a TGI [3] of 28.8 µM. The TGI [4] was 37.2 µM, the TGI [5] was 34.8 µM and the TGI [6] was 29.7 µM. The TGI [7] was 29.1 µM, the TGI [8] was 35.4 µM and the TGI [9] was 31.2 µM. It also gave a TGI [10] of 32.6 µM.
For `CCOC(=O)Cc1[nH]c(C(=O)c2ccccc2)cc1C(=O)c1ccccc1`, the TGI [1] was greater than 100 µM, the TGI [2] was greater than 100 µM and the TGI [3] was greater than 10 µM. For the same molecule, the TGI [4] was greater than 100 µM, the TGI [5] was greater than 100 µM and the TGI [6] was greater than 10 µM. It also gave a TGI [7] greater than 100 µM, a TGI [8] greater than 10 µM and a TGI [9] greater than 100 µM. For the same molecule, the TGI [10] was greater than 10 µM.
`NS(=O)(=O)c1ccc(-c2ccc([As](=O)(O)O)cc2)cc1` was tested, and the TGI [1] was greater than 100 µM, the TGI [2] was greater than 100 µM and the TGI [3] was greater than 100 µM. The TGI [4] was greater than 100 µM, the TGI [5] was greater than 100 µM and the TGI [6] was greater than 100 µM. For the same molecule, the TGI [7] was greater than 100 µM, the TGI [9] was greater than 100 µM and the TGI [10] was greater than 100 µM.
